Source: ChEMBL document CHEMBL4020780, “Evaluation of synthesized coumarin derivatives on aromatase inhibitory activity” (Bioorg Med Chem Lett, 2017)

Tests used:
Aromatase = molecular target: T1, Aromatase (Homo sapiens, UniProt P11511);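 note: tritiated androstenedione turnover by human CYP19 with NADPH over 15 min, measured through liquid scintillation counting, value is the concentration halving enzyme activity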
T1 sequence (P11511 whole entry): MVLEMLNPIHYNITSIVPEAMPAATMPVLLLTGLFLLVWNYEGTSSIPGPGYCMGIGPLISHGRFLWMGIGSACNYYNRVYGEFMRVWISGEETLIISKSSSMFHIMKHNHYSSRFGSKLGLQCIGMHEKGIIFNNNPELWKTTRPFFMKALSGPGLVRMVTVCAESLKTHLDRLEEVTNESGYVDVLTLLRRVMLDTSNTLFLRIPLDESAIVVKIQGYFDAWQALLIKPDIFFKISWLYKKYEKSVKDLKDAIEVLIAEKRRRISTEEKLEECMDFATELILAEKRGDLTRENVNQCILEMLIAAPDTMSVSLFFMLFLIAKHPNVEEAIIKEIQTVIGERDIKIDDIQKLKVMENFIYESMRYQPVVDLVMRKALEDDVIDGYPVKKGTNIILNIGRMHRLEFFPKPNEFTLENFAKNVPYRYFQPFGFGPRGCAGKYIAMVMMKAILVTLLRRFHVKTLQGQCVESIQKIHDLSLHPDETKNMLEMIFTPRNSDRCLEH

CYP19 (aromatase) [1] = molecular target: T2, CYP19 (aromatase) (Homo sapiens, UniProt P11511); assay: Inhibition of human CYP19 assessed as residual activity at 10 uM using [1beta-3H]-androstenedione as substrate after 15 mins in presence of NADPH by liquid scintillation counter method relative to control; conditions: probe [1beta-3H]-androstenedione, read-out: Activity
T2 sequence (P11511 whole entry): T1 sequence (P11511 whole entry)

CYP19 (aromatase) [2] = molecular target: T2, CYP19 (aromatase); assay: Inhibition of human CYP19 assessed as residual activity at 0.1 uM using [1beta-3H]-androstenedione as substrate after 15 mins in presence of NADPH by liquid scintillation counter method relative to control; conditions: probe [1beta-3H]-androstenedione, read-out: Activity

Row | IC50 (Aromatase) | activity at 0.25 h, 10 µM (CYP19 (aromatase) [1]) | activity at 0.25 h, 0.1 µM (CYP19 (aromatase) [2]) | SMILES
1 | > 10 µM | 96% |  | O=c1ccc2ccc(-c3ccccn3)cc2o1
2 | > 10 µM | 22 to 104% |  | CCN(CC)c1ccc2cc(-c3coc(-c4ccccc4)n3)c(=O)oc2c1
3 | > 10 µM | 77% |  | COc1ccc2cc(-c3cc4ccc(OC)cc4oc3=O)c(=O)oc2c1
4 | > 10 µM | 96% |  | COc1ccc2ccc(=O)oc2c1 [HERNIARIN]
5 | 1.1 µM | 15% |  | CCN(CC)c1ccc2cc(-c3nc(C)cs3)c(=O)oc2c1
6 | 1.1 µM | 22% |  | CCOC(=O)c1csc(-c2cc3ccc(N(CC)CC)cc3oc2=O)n1
7 | > 10 µM | 22 to 104% |  | CCOC(=O)c1oc(-c2cc3ccc(N(CC)CC)cc3oc2=O)nc1C
8 | 3.1 µM | 22 to 104% |  | CCN(CC)c1ccc2cc(-c3cnco3)c(=O)oc2c1
9 | > 10 µM | 65% |  | CCN(CC)c1ccc2cc(-c3nc(-c4ccccc4)cs3)c(=O)oc2c1
10 | > 10 µM | 86% |  | CCN(CC)c1ccc2ccc(=O)oc2c1
11 | 0.0303 µM | 0% | 25% | O=c1ccc2ccc(-c3cccnc3)cc2o1
12 | > 10 µM | 22 to 104% |  | CCN(CC)c1ccc2cc(-c3ncco3)c(=O)oc2c1
13 | > 10 µM |  |  | COc1ccc(-c2ccc3ccc(=O)oc3c2)cc1
14 | > 10 µM |  |  | O=c1ccc2ccc(-c3ccccc3)cc2o1
15 | 0.0287 µM | 0% | 30% | CCN(CC)c1ccc2cc(-c3cc4ccc(N(CC)CC)cc4oc3=O)c(=O)oc2c1
16 | 2.6 µM | 14% | 92% | O=c1ccc2ccc(-c3ccncc3)cc2o1
17 | > 10 µM | 55% |  | CCN(CC)c1ccc2cc(-c3nc(CC(=O)OC)cs3)c(=O)oc2c1
